Data on one compound can be found in US11591323B2, “Muscarinic agonists as non-steroidal and non-opioid analgesics and methods of use thereof” (Barry University, priority 2019, dated 2023).

The subject of the assay is rat aorta smooth muscle cells (mainly M2, lesser M3). Briefly: IPX level in primary culture of rat aorta smooth muscle cells. Format: cell-based. The settings on record: in words. Here is the method:
Effects of compounds 6A and 7A on both cAMP and IPX levels were also measured in primary cultures of rat aorta smooth muscle cells that express mainly M2 and to a lesser extent M3 receptors (FIG. 6). […] Receptor expression levels are far lower in tested native tissues than in transfected cell lines and vary among tissues, being highest in the striatum and lowest in the submaxillary gland. Relative expression levels of G-proteins are also known to vary among tissues and cell lines. Thus, it is great to see that the pharmacological profile of the new compounds is conserved despite these variations.
Cell culture and membrane preparation: Chinese hamster ovary (CHO) cells stably transfected with the genes of individual human variants of muscarinic receptors were purchased from Missouri S&T cDNA Resource Center (Rolla, Mo., USA). Fresh primary cell culture of smooth muscle cells (SMC) from rat aorta prepared as previously described was kindly provided by Dr. Lucie Bačáková. […]
Measurements of the production of cAMP and inositol phosphates: Levels of second messengers cAMP and inositol phosphates were determined in radiochemical chromatography assays as described previously. […] Samples were applied to alumina columns (1.5 g of alumina per column), washed with 2 ml ammonium acetate (pH=7.0) and eluted from columns with 4 ml ammonium acetate and measured by liquid scintillation spectrometry. […]

For `C[N+](C)(C)CCOC(N)=O` [carbachol, reference compound], the IPX level entry was “increase in IPX level”.
